“And” between values parts separate entries of the source, which are not always exact repeats. Equal values may be shown once.
How the values were obtained:
[1] = system: mitochondria of Th9 cells; test: Flow cytometry of mitochondrial membrane potential with TMRM (Figure 4N); format: cell-based, mouse
Description: Mitochondrial mass and membrane potential were assessed using MitoTracker™ Deep Red FM (Thermo Fisher Scientific, catalog M22426) and TMRM (tetramethylrhodamine methyl ester; Macklin, catalog T868125), respectively, following the manufacturers’ protocols. Cells were incubated with the respective dyes, washed, and subjected to flow cytometry or fluorescence microscopy analysis. For ultrastructural assessment, mitochondrial number and diameter were quantified from high-resolution transmission electron microscopy (TEM) images using ImageJ software.

Treg cells = test: Treg polarization, Foxp3 by flow cytometry (Figure 1I); format: cell-based, mouse
Description: (§1) Naive CD4^+ T cells were isolated from the spleens of C57BL/6J or CD45.1^+ OT-II mice using the MojoSort Mouse CD4 Naive T Cell Isolation Kit (BioLegend, catalog 480040), following the manufacturer’s protocol. Purified cells were cultured in RPMI-1640 medium supplemented with 10% FBS, 1% penicillin-streptomycin, and 0.1% β-mercaptoethanol (Gibco, catalog 21985023).
(§2) T cell polarization was initiated under plate-bound anti-CD3 (2 μg/mL, clone 17A2, BioXCell, catalog BE0002) and soluble anti-CD28 (1 μg/mL, clone 37.51, BioXCell, catalog BE0015-1) stimulation, with the addition of cytokines and neutralizing antibodies specific to each subset. For Th9 cells, these included IL-4 (10 ng/mL, Peprotech, catalog 400-04), TGF-β (1 ng/mL, EPOTO Biotech, catalog HF-2021), anti–IL-12 (5 μg/mL, clone C17.8, BioXCell, catalog BE0051), and anti–IFN-γ (10 μg/mL, clone XMG1.2, BioXCell, catalog BE0055); for Th1 cells, these included IL-12 (10 ng/mL, GenScript, catalog Z03211-50) and anti–IL-4 (5 μg/mL, clone 11B11, BioXCell, catalog BE0045); for Th2 cells, these included IL-4 (50 ng/mL), anti–IFN-γ (20 μg /mL), anti–IL-12 (5 μg/mL), Th17 cells: IL-6 (20 ng/mL, EPOTO Biotech, catalog MF-1006), TGF-β (1 ng/mL), IL-1β (10 ng/mL, Peprotech, catalog AF-211-11B), anti–IFN-γ (10 μg/mL), anti–IL-12 (5 μg/mL), and anti–IL-4 (5 μg/mL); and for Tregs, these included TGF-β (3 ng/mL). […]

Th9 cells = test: Intracellular ATP assay, luminescence (Figure 4L); format: cell-based, mouse; conditions: result in words
Description: (§3) Intracellular adenosine triphosphate (ATP) levels were measured using a chemiluminescent ATP assay kit (Beyotime, catalog S0026) according to the manufacturer’s protocol. Briefly, cells were lysed and incubated with the luciferase-based detection reagent, and the resulting luminescent signal was detected using an Infinite M200 multimode microplate reader (TECAN). ATP concentrations were calculated based on a standard curve and normalized to cell number or protein content where applicable.

human Th9 cells = test: Intracellular ATP of human Th9 cells (Figure 8E); format: cell-based; conditions: result in words
Description: For Th9 polarization, cultures were supplemented with IL-4 (10 ng/mL, PeproTech, catalog AF-200-04), TGF-β (1 ng/mL), and neutralizing anti–IFN-γ monoclonal antibody (10 μg/mL, clone B27, BioXcell, catalog BE0245). After 3 days of initial culture, cells were either collected for downstream assays or continued in extended culture with refreshed cytokines to maintain lineage commitment without antibodies. Th9 cells were collected at days 4, 5, and 6 for subsequent in vitro assays. For adoptive transfer studies, day 4–cultured Th9 cells were washed and prepared for intravenous injection.
as §3

Th17 cells = test: Th17 polarization, IL-17 by flow cytometry (Figure 1H); format: cell-based, mouse
Description: as §1, §2

[2] = EpA 10 μM, individual replicates, n = 4

Description for Raji lymphoma cells: For infection, human T cells were activated for 40 hours with plate-bound anti-CD3 (BioLegend, clone OKT3, 5 μg/mL) and soluble anti-CD28 antibodies (BioLegend, clone CD28.2, 2 μg/mL) antibodies and then resuspended in viral supernatant (MOI = 5) supplemented with recombinant human IL-2 (100 U/mL) and polybrene (10 μg/mL). The cell-virus mixture was subjected to spinoculation at 550g for 2 hours at room temperature, followed by incubation for 24 hours. Transduced CAR T cells were harvested on days 5 or 7 after activation for downstream functional assays.
The cytotoxic activity of CD19-targeting CAR T cells was evaluated using a luciferase-based bioluminescence assay. Raji cells stably expressing firefly luciferase (ffLuc) were resuspended in RPMI 1640 medium supplemented with 10% FBS and seeded into 24-well plates. CAR T cells were added at various effector-to-target (E:T) ratios, while tumor-only wells were included as negative controls. After 20 hours of coculture, 20,000 cells from each tumor-only control well were harvested, washed with PBS, resuspended in 100 μL of lysis buffer, and transferred to a black 96-well plate. Luminescence intensity was measured using a multimode plate reader, and the percentage of specific lysis was calculated as follows: % Cytotoxicity = 1 – (luminescence of coculture well/luminescence of tumor-only control well).

## anteiso-C15 Leu7 surfactin [EpA]
[1]; Figure 4N, individual replicates, (n = 5)
  TMRM: 178315 and 162266 and 165932 and 168795 and 170537
[1]; result in words
  mitochondrial membrane potential: elevated mitochondrial membrane potential
Treg cells; [2]
  Foxp3 expression under Treg polarization: 47.3 and 45.9 and 45.6 and 47.5
Treg cells; result in words
  effect on Treg polarization: did not affect
Th9 cells
  intracellular ATP levels: significantly elevated
Human Th9 cells
  ATP production, human Th9: increased
Raji lymphoma cells
  cytotoxicity against Raji cells: significantly greater cytotoxicity
Th17 cells; [2]
  IL-17 expression under Th17 polarization: 31.3 and 30.4 and 30.7 and 33.1
Th17 cells; result in words
  effect on Th17 polarization: did not affect
